The source of these data is PMC12723470, “Heteromultivalent Nanogels as Highly Potent Inhibitors of Pseudomonas Aeruginosa” (Angewandte Chemie (International Ed. in English), 2025).

In this test the test system is 72 h mature P. aeruginosa biofilm. As to the kind of experiment: Mature biofilm eradication assay. It counts as cell-based, Pseudomonas aeruginosa. The conditions noted are these: 24 h treatment. How it is done: Inspired by the results of planktonic bactericidal experiments, we further evaluated the anti‐biofilm activity of the nanogels. […] This observation further reinforces our hypothesis that heteromultivalent nanogels with glyco‐residues and the BMAP‐18 peptide contribute to the long‐term eradication of P. aeruginosa. Further, a mature biofilm eradication assay was performed. […] More than 99.9% biofilm‐coated P. aeruginosa were inactivated (Figure 4a and S10). […] Overall, biofilm inhibition experiments with different control NG, NG‐Fuc/Gal and PNG‐Fuc/Gal reveal that PNG‐Fuc/‐Gal decomposes biofilm by a binding and killing mechanism. First, they bind with bacteria surface lectins via their specific sugar ligands and then inactivate using their surface BMAPs leading to a strong reduction in the biofilm matrix.
Figure 4 a) P. aeruginosa biofilm matrix visualization after 72 h of treatment with samples (red: biofilm matrix, scale bar = 20 µm), b) Biofilm coated‐ P. aeruginosa viability after 12 h treatment of samples. c) Mature P. aeruginosa biofilm visualization after 12 h of treatment with samples, and statistics for thickness and roughness (mean ± SD, n = 7), d) Mature P. aeruginosa biofilm visualization after 24 h of treatment with samples, and statistics for thickness and roughness (mean ± SD, n = 7). 0.01 <*p< […], 0.001 <**p < 0.01, ***p < 0.001, compared with Control group.

On to `NC[C@H]1O[C@H](O[C@H]2[C@H](O)[C@@H](O[C@H]3O[C@H](CO)[C@@H](O)[C@H](N)[C@H]3O)[C@H](N)C[C@@H]2N)[C@H](N)C[C@@H]1O` [tobramycin], for which the “change of mature biofilm when treatment extended from 12 h to 24 h” value is recorded as “did not show significant changes”.
